{"source": "paper PMC7846792", "about": "“Perception of a divergent family of phytocytokines by the Arabidopsis receptor kinase MIK2” (Nature Communications, 2021)", "molecular_target": "T1, MIK2 ectodomain (MIK2ECD, residues 1–709) (Arabidopsis thaliana, UniProt Q8VZG8)", "T1 construct": "Arabidopsis thaliana MIK2 (residues 1–709); StrepII-9xHis (TEV-cleavable) (C, cleaved yes); made in house; host or cells: Trichoplusia ni Tnao38 insect cells (baculovirus, modified pFastBac)", "T1 sequence (Q8VZG8 44-709)": "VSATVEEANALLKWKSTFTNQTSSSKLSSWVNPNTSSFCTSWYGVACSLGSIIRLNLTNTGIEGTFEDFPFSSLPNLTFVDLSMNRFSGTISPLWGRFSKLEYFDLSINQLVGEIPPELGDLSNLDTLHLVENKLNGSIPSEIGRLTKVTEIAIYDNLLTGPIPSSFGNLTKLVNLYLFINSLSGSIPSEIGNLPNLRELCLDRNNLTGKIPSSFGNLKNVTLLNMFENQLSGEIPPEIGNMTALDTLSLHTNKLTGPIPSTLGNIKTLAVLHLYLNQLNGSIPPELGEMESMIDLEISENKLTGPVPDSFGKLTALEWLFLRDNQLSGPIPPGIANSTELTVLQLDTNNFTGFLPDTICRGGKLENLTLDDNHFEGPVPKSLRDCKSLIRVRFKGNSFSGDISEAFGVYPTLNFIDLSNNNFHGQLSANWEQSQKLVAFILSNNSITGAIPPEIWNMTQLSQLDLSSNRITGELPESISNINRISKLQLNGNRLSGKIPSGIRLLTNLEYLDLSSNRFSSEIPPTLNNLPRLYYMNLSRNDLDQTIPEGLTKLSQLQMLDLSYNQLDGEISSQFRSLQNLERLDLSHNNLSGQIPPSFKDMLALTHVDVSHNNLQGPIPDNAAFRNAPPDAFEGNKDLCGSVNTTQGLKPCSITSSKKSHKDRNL", "assay": "ITC, MIK2 vs SCOOP12", "assay_type": "binding", "description": "ITC data were corrected for the heat of dilution by subtracting the mixing enthalpies for titrant solution injections into protein-free ITC buffer. […] The N values were fitted to 1 in the analysis.", "note": "No end group written: not given here.", "data": [{"sequence": "PVRSSQSSQAGGR [SCOOP12]", "values": [{"measurement": "Kd", "value": "4.56 ± 0.299", "unit": "µM"}]}]}
